Laboratory results reported in patent publication US6376670B1, “Quinoline-indole antimicrobial agents, uses and compositions related thereto” (Sepracor Inc., priority 1997, dated 2002).
Read-outs that look alike come from different tables or passages of the source.

Legend:
Assay in all cases: Determination of MIC values (BHI broth, 96 well microtiter plate)
Assay type in all cases: cell-based
[1] = system: methicillin-resistant Staphylococcus aureus (MRSA); details: Staphylococcus aureus, MRSA, BHI broth, read-out: MIC MRSA
Description: (§1) Stock solutions of compounds are prepared with a concentration of 10 mg/mL. These solutions are then diluted 1:4 to give a concentration of 2.5 mg/mL. The compounds are then serially diluted 1:2 for 6 iterations. The concentrations made for each compound are 2.5, 1.25, 0.625, 0.3125, 0.156, 0.078, and 0.039 mg/mL. A control sample (no compound) is run along with each compound tested. All dilutions are made in DMSO.
(§2) All wells of a 96 well microtiter plate are filled with 100 μL of BHI (Brain-Heart Infusion) broth. Columns on the plate are labeled 1-12, and rows are labeled A-H. Each column of wells is used to test one series of diluted compounds. Into each well of 100 μL of BHI broth, 1 μL of diluted compound is placed for a 1:100 dilution. This makes the final concentration of each drug series 25, 12.5, 6.25, 3.125, 1.56, 0.78, 0.39, and 0 μg/mL.
(§3) Test Organism: A sterile 15 mL screw cap tube is filled wth 3 mL of BHI broth. Next, 2-3 colonies of test organism are inoculated into the tube. The tube is then incubated at 37° C. in a CO2 (approx. 7%) atmosphere jar. The organisms are allowed to grow to the density of a 0.5 McFarland standard (10^8 cells/mL). The organism is then inoculated into each well of the microtiter plate containing the diluted compounds to be tested for MIC. The inoculum is 1 μL in volume and represents 10^5 to 10^6 cells/mL.
(§4) After inoculation the plates are covered and incubated at 37° C. and approx. 7-10% CO2 atmosphere overnight (about 16 hours). The plates are then observed for growth, the well with the lowest concentration of drug and no observable growth represents the well determining the MIC.

[2] = system: vancomycin-resistant Enterococcus spp. (VRE); details: Enterococcus, VRE, BHI broth, read-out: MIC VREF
Description: as §1, §2, §3, §4

[3] = system: Streptococcus pneumoniae; details: Streptococcus pneumoniae, BHI broth, read-out: MIC S. pneu
Description: as §1, §2, §3, §4

[4] = 16 h, 37° C., overnight (about 16 hours)
[5] = 37° C., overnight (about 16 hours)

MIC [1, 4] [µg/mL] | MIC [2, 4] [µg/mL] | Structure (SMILES) | other results
 |  | Cn1cc(-c2cc(C(=O)NCc3cccc(CN)c3)c3ccccc3n2)c2cc(Br)ccc21 [Example 227] | MIC ([1]; overnight 37° C.): < 7 µg/mL; MIC ([2]; VREF, overnight 37° C.): < 7 µg/mL; MIC ([3]; S. pneu, overnight 37° C.): < 7 µg/mL
 |  | NCC(O)CNC(=O)c1cc(-c2c[nH]c3ccc(Br)cc23)nc2ccc(C#CCN3CCCCC3)cc12 (stereo not shown) [Example 534] | MIC ([1]; 16 h, 37° C., about 16 hours): < 7 µg/mL; MIC ([2]; 16 h, 37° C., about 16 hours): < 7 µg/mL; MIC ([3]; 37° C., about 16 hours): < 7 µg/mL
< 7 | < 25 | NCc1ccc(CNC(=O)c2cc(-c3c[nH]c4ccccc34)nc3ccc(I)cc23)cc1 [Example 159] | MIC [3, 5]: < 25 µg/mL
 |  | NCc1ccc(CNC(=O)c2cc(-c3c[nH]c4ccc(Br)cc34)nc3c(C#CCN4CC=CCC4)cccc23)cc1 [Example 305] | MIC ([1]; overnight 37° C.): < 7 µg/mL; MIC ([2]; VREF, overnight 37° C.): < 7 µg/mL; MIC ([3]; S. pneu, overnight 37° C.): < 7 µg/mL
< 7 | > 25 | O=C(NCc1nc2ccccc2[nH]1)c1cc(-c2c[nH]c3ccc(Br)cc23)nc2ccc(I)cc12 [Example 173] | MIC [3, 5]: < 7 µg/mL
 |  | CC(=O)Oc1cccc2[nH]cc(-c3cc(Cl)c4ccccc4n3)c12 [Example 351] | MIC ([1]; overnight 37° C.): < 7 µg/mL; MIC ([2]; VREF, overnight 37° C.): > 25 µg/mL; MIC ([3]; S. pneu, overnight 37° C.): < 7 µg/mL
 |  | Cc1ccc2nc(-c3c[nH]c4ccccc34)ccc2c1 [Example 481] | MIC ([1]; 16 h, 37° C., about 16 hours): > 25 µg/mL; MIC ([2]; 16 h, 37° C., about 16 hours): > 25 µg/mL; MIC ([3]; 37° C., about 16 hours): > 25 µg/mL
 |  | Cn1cc(-c2cc(C(=O)NCCN)c3cc(C#CCNCC4CCCCC4)ccc3n2)c2cc(Br)ccc21 [Example 401] | MIC ([1]; 16 h, 37° C., about 16 hours): < 7 µg/mL; MIC ([2]; 16 h, 37° C., about 16 hours): < 7 µg/mL; MIC ([3]; 37° C., about 16 hours): < 7 µg/mL
< 7 | < 25 | NCc1ccc(CNC(=O)c2cc(-c3c[nH]c4ccc(Br)cc34)nc3cc4c(cc23)OCO4)cc1 [Example 144] | MIC [3, 5]: < 25 µg/mL
 |  | Cn1cc(-c2cc(C(=O)NCC3CCCC(CN)C3)c3ccc(I)cc3n2)c2cc(Br)ccc21 (stereo not shown) [Example 332] | MIC ([1]; overnight 37° C.): < 7 µg/mL; MIC ([2]; VREF, overnight 37° C.): < 7 µg/mL; MIC ([3]; S. pneu, overnight 37° C.): < 7 µg/mL
 |  | Cc1cccc2ccc(-c3c[nH]c4c(C)cccc34)nc12 [Example 471] | MIC ([2]; 16 h, 37° C., about 16 hours): > 25 µg/mL; MIC ([3]; 37° C., about 16 hours): < 7 µg/mL
> 25 | > 25 | NCc1ccc(CNC(=O)c2cc(-c3c[nH]c4ccccc34)nc3ccccc23)cc1 [compound 7] | 
< 7 | < 25 | NCc1ccc(CNC(=O)c2cc(-c3cccnc3)nc3ccc(Br)cc23)cc1 [Example 84] | 
> 25 | > 25 | Cn1cc(-c2ccc3cc(Cl)ccc3n2)c2ccccc21 [Example 179] | 
< 7 | < 25 | NCc1ccc(CNC(=O)c2cc3ccccc3c(-c3c[nH]c4ccc(Br)cc34)n2)cc1 [Example 13] | 
< 7 | < 7 | O=C(NCCCCC1CCCNC1)c1cc(-c2c[nH]c3ccc(Br)cc23)nc2ccccc12 (stereo not shown) [Example 49] | 
< 7 | < 25 | NCCCN1CCN(CCCNC(=O)c2cc(-c3c[nH]c4ccc(Br)cc34)nc3ccc(I)cc23)CC1 [Example 70] | 
< 7 | < 7 | O=C(c1cc(-c2c[nH]c3ccc(Br)cc23)nc2ccc(I)cc12)N1CCNCC1 [Example 54] | 
> 25 | > 25 | NCc1ccc(CNC(=O)c2cc(-c3c[nH]c4ccc(Br)cc34)nc3ccc(C#CCN4CCC(Cc5ccccc5)CC4)cc23)cc1 [Example 75] | 
< 7 | < 7 | O=C(Nc1ccc(Cl)c(C(F)(F)F)c1)N1CCN(C(=O)c2cc(-c3c[nH]c4ccc(Br)cc34)nc3ccccc23)CC1 [Example 67] | 
> 25 | > 25 | NCc1ccc(CNC(=O)c2cc(-c3ccsc3)nc3ccc(Br)cc23)cc1 [Example 83] | 
< 7 | < 7 | Cc1cc2nc(-c3c[nH]c4ccc(Br)cc34)cc(C(=O)N3CCCNCC3)c2cc1C [Example 130] | 
< 25 | < 25 | NCCNC(=O)c1cc(-c2c[nH]c3ccc(Br)cc23)nc2ccccc12 [compound 2] | 
< 25 | < 25 | NC1CCCCC1NC(=O)c1cc(-c2c[nH]c3ccc(Br)cc23)nc2ccccc12 (stereo not shown) [compound 10] | 
< 25 | < 25 | NCc1ccc(CNC(=O)c2cc(-c3c[nH]c4ccccc34)nc3c(Cl)cccc23)cc1 [Example 160] | 
 |  | COc1ccc2c(c1)c(-c1ccc3cc(Cl)ccc3n1)cn2C [Example 214] | MIC ([1]; overnight 37° C.): < 25 µg/mL; MIC ([2]; VREF, overnight 37° C.): > 25 µg/mL
 |  | Cn1cc(-c2ccc3cc(Cl)ccc3n2)c2cc(F)ccc21 [Example 210] | MIC ([1]; overnight 37° C.): < 7 µg/mL; MIC ([2]; VREF, overnight 37° C.): > 25 µg/mL

MIC [1, 4] [µg/mL] | MIC [2, 4] [µg/mL] | Structure (SMILES) | other results
< 25 | < 25 | O=C(c1cc(-c2c[nH]c3ccc(Br)cc23)nc2ccccc12)N1CCCNCC1 [Example 14] | 
< 7 | < 7 | O=C(c1cc(-c2c[nH]c3ccc(Br)cc23)nc2ccc(Br)cc12)N1CCCNCC1 [Example 126] | 
< 25 | < 25 | N[C@H](Cc1c[nH]cn1)C(=O)NCc1ccc(CNC(=O)c2cc(-c3c[nH]c4ccc(Br)cc34)nc3ccccc23)cc1 [Example 73] | 
> 25 | < 25 | NCC1CCC(CNC(=O)c2cc(-c3c[nH]c4ccc(Br)cc34)nc3ccccc23)CC1 (stereo not shown) [Example 42] | 
< 25 | < 25 | NCc1ccc(CNC(=O)c2cc(-c3c[nH]c4cc(Cl)ccc34)nc3ccccc23)cc1 [Example 20] | 
 |  | NCC1CCCC(CNC(=O)c2cc(-c3c[nH]c4ccc(Br)cc34)nc3cc(F)ccc23)C1 (stereo not shown) [Example 255] | MIC ([1]; overnight 37° C.): < 7 µg/mL; MIC ([2]; VREF, overnight 37° C.): < 7 µg/mL
> 25 | > 25 | NCc1ccc(CNC(=O)C2CC(c3c[nH]c4ccccc34)Nc3ccccc32)cc1 (stereo not shown) [Example 91] | 
> 25 | > 25 | O=C(Nc1ccccc1OC(F)(F)F)N1CCN(C(=O)c2cc(-c3c[nH]c4ccc(Br)cc34)nc3ccccc23)CC1 [Example 69] | 
> 25 | > 25 | O=C(O)c1cc(-c2c[nH]c3ccc(Br)cc23)nc2ccccc12 [Example 27] | 
< 25 | < 7 | NCc1cccc(CNC(=O)c2cc(-c3c[nH]c4ccc(Br)cc34)nc3ccccc23)c1 [compound 4] | 
< 25 | < 25 | O=C(c1cc(-c2c[nH]c3ccc(Br)cc23)nc2ccccc12)N1CCC(N2CCCCC2)CC1 [Example 47] | 
> 25 | > 25 | NCCCNC(=O)c1cc(-c2c[nH]c3ccccc23)nc2ccccc12 [compound 1] | 
< 25 | > 25 | NCC(=O)NCc1ccc(CNC(=O)c2cc(-c3c[nH]c4ccc(Br)cc34)nc3ccccc23)cc1 [Example 71] | 
 |  | Cn1cc(-c2cc(C(=O)NCc3ccc(CN)cc3)c3cc(I)ccc3n2)c2cc(Br)ccc21 [Example 299] | MIC ([3]; S. pneu, overnight 37° C.): < 7 µg/mL
> 25 | > 25 | Cn1cc(-c2ccc3ccccc3n2)c2cc(Cl)ccc21 [Example 177] | 
> 25 | > 25 | CC(C)(C)OC(=O)n1cc(-c2cc(C(=O)O)c3cccnc3n2)c2cc(Br)ccc21 [Example 157] | 
< 7 | < 7 | NC(=O)C(Cc1ccc2ccccc2c1)NC(=O)c1cc(-c2c[nH]c3ccc(Cl)cc23)nc2ccccc12 (stereo not shown) [Example 147] | 
> 25 | > 25 | O=C(O)c1cc(-c2c[nH]c3ccc(Br)cc23)nc2c(Cl)cccc12 [Example 141] | 
> 25 | > 25 | NCc1ccc(CNC(=O)c2cc(-c3c[nH]c4cccc(F)c34)nc3ccccc23)cc1 [Example 79] | 
< 25 | < 25 | CN(C)Cc1ccc(CNC(=O)c2cc(-c3c[nH]c4ccc(Br)cc34)nc3ccccc23)cc1 [Example 92] | 
 |  | Clc1ccc2nc(-c3c(-c4ccccc4)[nH]c4ccccc34)ccc2c1 [Example 203] | MIC ([1]; overnight 37° C.): > 25 µg/mL; MIC ([2]; VREF, overnight 37° C.): > 25 µg/mL
 |  | COc1cc2c(-c3ccc4cc(Cl)ccc4n3)cn(C)c2cc1OC [Example 222] | MIC ([1]; overnight 37° C.): > 25 µg/mL; MIC ([2]; VREF, overnight 37° C.): > 25 µg/mL
> 25 | > 25 | COc1ccc2[nH]cc(-c3cc(C(=O)NCc4ccc(CN)cc4)c4ccccc4n3)c2c1 [Example 18] | 
> 25 | > 25 | O=[N+]([O-])c1ccc2[nH]cc(-c3ccc4ccccc4n3)c2c1 [Example 186] | 
< 7 | < 7 | NCc1ccc(CNC(=O)c2cc(-c3c[nH]c4ccc(Br)cc34)nc3ccc(Br)cc23)cc1 [Example 120] | 
 |  | O=C1c2ccccc2C(=O)N1CCCCn1cc(-c2ccc3cc(Cl)ccc3n2)c2ccc(F)cc21 [Example 267] | MIC ([1]; overnight 37° C.): > 25 µg/mL; MIC ([2]; VREF, overnight 37° C.): > 25 µg/mL
